Experimental data as given in ChEMBL document CHEMBL1158716, “Sesquiterpenoids and plasmin-inhibitory flavonoids from Blumea balsamifera” (J Nat Prod, 2005).

Legend:
[1] = test system: Jurkat; assay: Cytotoxicity against human Jurkat cells; format: functional, cell-based
[2] = biological target: Plasminogen (Homo sapiens, UniProt P00747); assay: Inhibition of plasmin
Plasminogen, sequence (P00747 97-580 limits assumed): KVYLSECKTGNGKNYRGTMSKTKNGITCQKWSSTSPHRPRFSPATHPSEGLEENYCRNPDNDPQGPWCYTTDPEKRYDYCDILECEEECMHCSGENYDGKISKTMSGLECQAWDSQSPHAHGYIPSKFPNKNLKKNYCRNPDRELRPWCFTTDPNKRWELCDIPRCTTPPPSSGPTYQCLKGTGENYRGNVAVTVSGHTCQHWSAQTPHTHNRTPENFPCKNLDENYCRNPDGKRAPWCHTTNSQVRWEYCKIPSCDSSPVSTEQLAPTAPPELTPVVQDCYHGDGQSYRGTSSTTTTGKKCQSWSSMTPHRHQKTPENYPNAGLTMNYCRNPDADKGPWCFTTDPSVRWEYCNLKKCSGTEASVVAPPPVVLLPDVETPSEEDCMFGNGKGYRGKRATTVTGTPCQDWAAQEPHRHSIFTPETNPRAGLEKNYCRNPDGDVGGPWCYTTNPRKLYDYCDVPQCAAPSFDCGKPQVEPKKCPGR
Plasminogen, sequence (P00747 581-810 limits assumed): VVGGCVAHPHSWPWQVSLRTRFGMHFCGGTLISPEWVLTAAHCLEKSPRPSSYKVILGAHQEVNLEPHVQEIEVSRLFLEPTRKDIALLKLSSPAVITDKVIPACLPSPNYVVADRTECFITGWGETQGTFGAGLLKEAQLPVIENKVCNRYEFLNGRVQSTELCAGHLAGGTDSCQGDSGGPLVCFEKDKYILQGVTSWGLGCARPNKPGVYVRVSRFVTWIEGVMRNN

SMILES | IC50 [2] [nM] | IC50 [1] [µM]
C/C1=C\C(=O)[C@@H](C(C)C)C[C@@H](OC(=O)[C@]2(C)O[C@@H]2C)[C@](C)(O)C(=O)CC1 | – | 26.2
C=C1CC[C@@]2(O)[C@H]1C(=O)[C@@H](C(C)C)C[C@@H](OC(=O)/C(C)=C\C)[C@]2(C)O | – | > 70
COc1cc(O)c2c(=O)cc(-c3ccc(O)c(O)c3)oc2c1 | 2300 | –

Continued, in another order:

IC50 [2] [nM] | SMILES | IC50 [1] [µM]
1500 | COc1cc(O)c2c(=O)c(OC)c(-c3ccc(O)c(O)c3)oc2c1 | –
1200 | CC(=O)N[C@@H](CC(C)C)C(=O)N[C@@H](CC(C)C)C(=O)N[C@H](C=O)CCCNC(=N)N [LEUPEPTIN] | –
